This is an account of results in patent US6844183B2, “Antibiotics RK-1061 and process for preparing the same” (Daiichi Pharmaceutical Co., Ltd., priority 1996, dated 2005).

One data set deals with Escherichia coli AB 1157. Nature of the data set: paper disk antibacterial test, Escherichia coli AB 1157. Type of data set: cell-based. The note with it: 20 μg/disc. The procedure:
(§1) Methanol solution of each tested substance with specific concentration was sunk on a paper disk with diameter of 8 mm (Thick, Toyo-roshi) and dried, which was placed on a plate of each bacterium. After culture under the conditions suitable for each bacterium, the diameter of cell growth was measured, The results are shown in Table 4, 5 and 6.

The subject of the next data set is Escherichia coli BE 1186. Nature of the data set: paper disk antibacterial test, Escherichia coli BE 1186. The following applies: 20 μg/disc, ( ) represents partial inhibition. Format: cell-based. As to the method:
as §1

Data set [1] has as its system Staphylococcus aureus IFO 12732. Description: paper disk antibacterial test, Staphylococcus aureus IFO 12732. Type of data set: cell-based. The following applies: 20 μg/disc. As to the method: as §1
For data set [2], the system named is Bacillus subtilis IFO 3513. Description: paper disk antibacterial test, Bacillus subtilis IFO 3513. Format: cell-based. The note with it: 20 μg/disc; for the diameter of cell growth inhibition zone: ( ) represents partial inhibition. The procedure:
as §1

Data set [3] concerns Mycobacterium phlei IFO 3158. Nature of the data set: paper disk antibacterial test, Mycobacterium phlei. The note with it: for The diameter of cell growth inhibition zone against M. Phlei: 2 μg/disc; for the diameter of cell growth inhibition zone: Mycobacterium phlei IFO 3158, 20 μg/disc. Type of data set: cell-based. The procedure:
as §1

The subject of data set [4] is Candida albicans IFO 5994. Nature of the data set: paper disk test, Candida albicans IFO 5994. Type of data set: cell-based. The note with it: 20 μg/disc. The procedure: as §1
A further data set relates to peptidoglycan synthesis. Description: inhibitory activity on peptidoglycan synthesis (crude enzyme, UDP-[3H]GlcNAc incorporation). Format: biochemical, Escherichia coli. The following applies: 0.1 μg/ml. As to the method: Crude enzyme and substrate UDP-MurNAc-pentapeptide were prepared from Escherichia coli and Bacillus subtilis respectively according to a reference (J. Biol. Chem., 243, 3180 (1968)). Enzymatic reaction was carried out by mixing 5 μl of 1M Tris-HCl (pH 7.5), 10 μl of 0.1M MgCl2, 5 μl of 2 mM UDP-MurNAc-pentapeptide, 5 μl of enzyme solution(15 mg/ml protein concentration), 5 μl of sample, 5 μl of UDP-[U-^3H]GlcNAc (10 μCi/ml, 25.8 Ci/mmol., Du'pont) and 15 μl of water at 37° C. for 60 minutes and […]. After ice-cooling, it was trapped on a GF/C glass filter(2.4 cm, Whatman). And after adding scintillator thereto, radiation thereof was counted. Inhibitory % was calculated by comparing the count of control.

The test system of a further data set is BALB/3T3 cells. Description: cytotoxicity test (MTT). Type of data set: cell-based. The following applies: 3 days culture. As to the method: BALB/3T3 cells (100 μl) were inoculated into 10% FBS added DMEM medium (Gibco) in 96 well plate so as to be 1×10^5 cells/ml under 5% CO2 at 37° C., which was cultured overnight. The test substance dissolved in methanol was added thereto, which was cultured for more 3 days and further kept cultured for 4 hours after adding 10 μl of 2.5 mg/ml MTT reagent (Sigma). After removing supernatant, 100 μl of DMSO was added thereto and kept it overnight. The absorbance thereof at 540 nm was determined to detect viable cells.

In the case of `CCCCCCCCCCCCCC(CC(=O)OC1CN(C)C(C(OC2OC(CN)C(O)C2OS(=O)(=O)O)C2OC(n3ccc(=O)[nH]c3=O)C(O)C2O)C(=O)N(C)C1C(=O)O)OC(=O)CC(C)CC(=O)O` (centres unmarked) [Liposidomycins M], the “the diameter of cell growth inhibition zone” value in the data set on Escherichia coli AB 1157 worked out at 0 mm; in the data set on Escherichia coli BE 1186 it was 0 mm; in data set [1], 0 mm; in data set [2], 9.7 mm; in data set [3], 27.2 mm; in data set [4], 0 mm. Further, in data set [2], the “the diameter of cell growth inhibition zone, partial inhibition (value in brackets)” value is reported as “(13.0) mm”. In addition, the “The diameter of cell growth inhibition zone against M. Phlei” value in data set [3] (Table 5) amounted to 16.86 mm.
Regarding `CCCCCCCCC=CCC(CC(=O)OC1CN(C)C(C(OC2OC(CN)C(O)C2OS(=O)(=O)O)C2OC(n3ccc(=O)[nH]c3=O)C(O)C2O)C(=O)N(C)C1C(=O)O)OC(=O)CC(C)CC(=O)O` (centres unmarked) [Liposidomycins Z], the “the diameter of cell growth inhibition zone” value (in the data set on Escherichia coli AB 1157; in data set [1]; in data set [2]; in data set [4]) was 0 mm throughout. For the same compound, the “The diameter of cell growth inhibition zone against M. Phlei” value in data set [3] (Table 5) worked out at 0 mm.
On to Tunicamycin [TM], for which, in the data set with peptidoglycan synthesis, the “Inhibitory activity on peptidoglycan synthesis” value (“Inhibitory activity” for short) was determined as 10%. For the same compound, in the data set with BALB/3T3 cells, the “Cytotoxicity against BALB/3T3 (IC50)” value turned out to be 0.05 µg/mL.
On to `CCCCCC=CCC=CCCCC(CC(=O)OC1CN(C)C(C(OC2OC(CN)C(O)C2O)C2OC(n3ccc(=O)[nH]c3=O)C(O)C2O)C(=O)N(C)C1C(=O)O)OC(=O)CC(C)CC(=O)O` (centres unmarked) [Liposidomycins A-(III)], for which the “the diameter of cell growth inhibition zone” value in the data set with Escherichia coli AB 1157 came out at 0 mm; in the data set with Escherichia coli BE 1186 it was 17.8 mm; in data set [1], 0 mm; in data set [2] it was 21.0 mm; in data set [3], 24.8 mm; in data set [4], 0 mm. Also, the “The diameter of cell growth inhibition zone against M. Phlei” value in data set [3] (Table 5) is given as 11.62 mm; in data set [3] (Table 6), 14.3^− mm. Also, the “Inhibitory activity” value in the data set with peptidoglycan synthesis worked out at 96%. The “Cytotoxicity against BALB/3T3 (IC50)” value in the data set on BALB/3T3 cells is over 25 µg/mL.
Regarding `CCCCCC=CCC=CCC(CC(=O)OC1CN(C)C(C(OC2OC(CN)C(O)C2O)C2OC(n3ccc(=O)[nH]c3=O)C(O)C2O)C(=O)N(C)C1C(=O)O)OC(=O)CC(C)CC(=O)O` (centres unmarked) [Liposidomycins Y-(III)], in data set [3] (Table 5), the “The diameter of cell growth inhibition zone against M. Phlei” value turned out to be 0 mm.
As to `CCCCCC=CCC=CCCCC(CC(=O)OC1CN(C)C(C(OC2OC(CN)C(O)C2OS(=O)(=O)O)C2OC(n3ccc(=O)[nH]c3=O)C(O)C2O)C(=O)N(C)C1C(=O)O)OC(=O)CC(C)CC(=O)O` (centres unmarked) [Liposidomycins A, reference compound], the “the diameter of cell growth inhibition zone” value in the data set on Escherichia coli AB 1157 is 0 mm; in data set [1] it was 0 mm; in data set [2] it was 0 mm; in data set [3], 18.9 mm; in data set [4], 0 mm. Further, the “The diameter of cell growth inhibition zone against M. Phlei” value in data set [3] (Table 5) and in data set [3] (Table 6) was 0 mm throughout. Also, in the data set on peptidoglycan synthesis, the “Inhibitory activity” value is recorded as 95%. For the same compound, the “Cytotoxicity against BALB/3T3 (IC50)” value in the data set with BALB/3T3 cells was over 25 µg/mL.
Turning to `CCCCCC=CCC=CCCCCCC(CC(=O)OC1CN(C)C(C(OC2OC(CN)C(O)C2OS(=O)(=O)O)C2OC(n3ccc(=O)[nH]c3=O)C(O)C2O)C(=O)N(C)C1C(=O)O)OC(=O)CC(C)CC(=O)O` (centres unmarked) [Liposidomycins K], the “the diameter of cell growth inhibition zone” value in the data set on Escherichia coli AB 1157 stood at 0 mm; in data set [1], 0 mm; in data set [3], 28.6 mm; in data set [4], 0 mm. In data set [3] (Table 5), the “The diameter of cell growth inhibition zone against M. Phlei” value is reported as 13.15 mm.
On to `CCCCCCCCC=CCC(CC(=O)OC1CN(C)C(C(OC2OC(CN)C(O)C2O)C2OC(n3ccc(=O)[nH]c3=O)C(O)C2O)C(=O)N(C)C1C(=O)O)OC(=O)CC(C)CC(=O)O` (centres unmarked) [Liposidomycins Z-(III)], for which the “the diameter of cell growth inhibition zone” value with Escherichia coli AB 1157 was 0 mm; with Escherichia coli BE 1186 it was 18.8 mm; in data set [1] it was 0 mm; in data set [2], 22.2 mm; in data set [3] it was 26.3 mm; in data set [4], 0 mm. In addition, in data set [3] (Table 5), the “The diameter of cell growth inhibition zone against M. Phlei” value worked out at 13.74 mm.
In the case of `CC(C)CCCCCCCCCCC(CC(=O)OC1CN(C)C(C(OC2OC(CN)C(O)C2OS(=O)(=O)O)C2OC(n3ccc(=O)[nH]c3=O)C(O)C2O)C(=O)N(C)C1C(=O)O)OC(=O)CC(C)CC(=O)O` (centres unmarked) [Liposidomycins L], the “The diameter of cell growth inhibition zone against M. Phlei” value in data set [3] (Table 5) was 14.08 mm.
For the compound `CCCCCC=CCC=CCCCCCC(CC(=O)OC1CN(C)C(C(OC2OC(CN)C(O)C2O)C2OC(n3ccc(=O)[nH]c3=O)C(O)C2O)C(=O)N(C)C1C(=O)O)OC(=O)CC(C)CC(=O)O` (centres unmarked) [Liposidomycins K-(III)], the “the diameter of cell growth inhibition zone” value stood at 0 mm with Escherichia coli AB 1157; 13.5 mm in the data set on Escherichia coli BE 1186; 0 mm in data set [1]; 13.0 mm in data set [2]; 23.3 mm in data set [3]; 0 mm in data set [4]. In addition, the “The diameter of cell growth inhibition zone against M. Phlei” value in data set [3] (Table 5) is given as 12.27 mm.
With `CCCCCCCCC=CCCCC(CC(=O)OC1CN(C)C(C(OC2OC(CN)C(O)C2O)C2OC(n3ccc(=O)[nH]c3=O)C(O)C2O)C(=O)N(C)C1C(=O)O)OC(=O)CC(C)CC(=O)O` (centres unmarked) [Liposidomycins G-(III)], the “The diameter of cell growth inhibition zone against M. Phlei” value in data set [3] (Table 5) is 16.68 mm.
For `CCCCCCCCCCCC(CC(=O)OC1CN(C)C(C(OC2OC(CN)C(O)C2O)C2OC(n3ccc(=O)[nH]c3=O)C(O)C2O)C(=O)N(C)C1C(=O)O)OC(=O)CC(C)CC(=O)O` (centres unmarked) [Liposidomycins C-(III)], the “the diameter of cell growth inhibition zone” value in the data set with Escherichia coli AB 1157 stood at 0 mm; in the data set with Escherichia coli BE 1186 it was 14.3 mm; in data set [1] it was 0 mm; in data set [2], 17.8 mm; in data set [3] it was 30.3 mm; in data set [4] it was 0 mm. Further, in data set [2], the “the diameter of cell growth inhibition zone, partial inhibition (value in brackets)” value is recorded as “(23.7) mm”. Further, the “The diameter of cell growth inhibition zone against M. Phlei” value in data set [3] (Table 5) was found to be 16.21 mm.
On to `CCCCCCCCCCCCCC(CC(=O)OC1CN(C)C(C(OC2OC(CN)C(O)C2O)C2OC(n3ccc(=O)[nH]c3=O)C(O)C2O)C(=O)N(C)C1C(=O)O)OC(=O)CC(C)CC(=O)O` (centres unmarked) [Liposidomycins M-(III)], for which the “the diameter of cell growth inhibition zone” value worked out at 0 mm in the data set on Escherichia coli AB 1157; 0 mm in data set [1]; 14.8 mm in data set [2]; 25.7 mm in data set [3]; 0 mm in data set [4]. For the same compound, in data set [3] (Table 5), the “The diameter of cell growth inhibition zone against M. Phlei” value came out at 15.49 mm.
For `CCCCCCCCCCCC(CC(=O)OC1CN(C)C(C(OC2OC(CN)C(O)C2OS(=O)(=O)O)C2OC(n3ccc(=O)[nH]c3=O)C(O)C2O)C(=O)N(C)C1C(=O)O)OC(=O)CC(C)CC(=O)O` (centres unmarked) [Liposidomycins C, reference compound], the “the diameter of cell growth inhibition zone” value in the data set with Escherichia coli AB 1157 amounted to 0 mm; in the data set on Escherichia coli BE 1186, 0 mm; in data set [1], 0 mm; in data set [2], 0 mm; in data set [3], 22.1 mm; in data set [4], 0 mm. Further, in data set [3] (Table 5), the “The diameter of cell growth inhibition zone against M. Phlei” value was 0 mm.
